# Data published in US10226449B2, “Heterocyclic modulators of lipid synthesis and combinations thereof” (priority 2013, dated 2019).
# Read-outs that look alike come from different tables or passages of the source.
# What was measured:
# [1] = Tolerability in the single agent PANC-1 xenograft study; conditions: 30/20 mg/kg Q5d; 18-day study; PANC-1 xenograft mice, 10 per group
# Description: (§1) The day of tumor cell inoculation is denoted as day 0. Drug treatment was initiated when the mean tumor size reached 149 mm^3 (day 15). […] Mice were assigned into treatment groups using a randomized block design based upon their tumor volumes. […] Tumor sizes were measured twice weekly in two dimensions using a caliper, and the volumes were expressed in mm^3 using the formula: V=0.5 a×b2 where a and b were the long and short diameters of the tumor, respectively. The study was terminated 6 hours post the 18th Qd dose on day 32 after tumor inoculation. Tumor growth inhibition (TGI) was calculated as the percentage of tumor growth, relative to tumor size at the start of treatment, in drug-treated groups compared to vehicle-treated groups. The Mann-Whitney U test was used to assess statistical significance of the mean tumor size between drug and vehicle-treated groups.
# [2] = mouse, in vivo
# Description: as §1
# HCV1b replicon = HCV1b replicon antiviral assay (luciferase reporter); format: cell-based; conditions: Hepatitis C virus; HCV genotype 1b replicon; read-out: HCV GT1b EC50
# Description: The antiviral activities of the compounds were assessed using the HCV1b replicon system. […] HCV RNA replicon levels were assessed using the Bright-Glo™ Luciferase Assay System (Promega) to measure replicon-derived Luc activity.
# [3] = mouse, in vivo; remark: listed apart in the source
# Description: (§2) The day of tumor cell inoculation is denoted as day 0. After inoculation, the animals were checked daily for morbidity and mortality. At the time of routine monitoring, the animals were checked for any effects of tumor growth and treatments on normal behavior such as mobility, visual estimation of food and water consumption, body weight gain/loss (body weights were measured twice weekly), eye/hair matting and any other abnormal signs. […] Mice were assigned into treatment groups using a randomized block design based upon their tumor volumes. […] Tumor sizes were measured twice weekly in two dimensions using a caliper, and the volumes were expressed in mm^3 using the formula: V=0.5*(a*b^2) where a and b were the long and short diameters of the tumor, respectively. The study was terminated 6 hours post the last dose 17-28 days after treatment initiation. Tumor growth inhibition (TGI) was calculated as the percentage of tumor growth, relative to tumor size at the start of treatment, in drug-treated groups compared to vehicle-treated groups. The Mann-Whitney U test was used to assess statistical significance of the mean tumor size between drug and vehicle-treated groups
# PANC-1 xenograft tumors = assay: PANC-1 pancreatic xenograft tumor growth inhibition with gemcitabine; format: in vivo, BALB/c-nude mice
# Description: as §2
# [4] = mouse, in vivo; remark: listed apart in the source
# Description: as §2
# OVCAR-8 xenograft tumors = assay: OVCAR-8 ovarian xenograft tumor growth inhibition with paclitaxel; format: in vivo, BALB/c-nude mice; conditions: day 21 post treatment start
# Description: as §2
# The study was terminated 28 days after initiation of treatment.
# [5] = tested on: COLO-205 xenograft tumors; assay: COLO-205 colon xenograft tumor growth inhibition with irinotecan
# Description: as §2
# [6] = mouse, in vivo; remark: listed apart in the source
# Description: as §2
# CALU-6 xenograft tumors = assay: CALU-6 lung xenograft tumor growth inhibition with paclitaxel; format: in vivo, BALB/c-nude mice; conditions: for TGI vs. Vehicle: day 21 post treatment start
# Description: as §2
# The study was terminated 21 days after initiation of treatment.
# [7] = irinotecan 10 mg/kg ip Q4d, single agent
smiles,measurement,setting,value
"C=C1C(=O)O[C@@H](CCCCCCCC)[C@@H]1C(=O)O (relative stereo) [Compound C75, trans-4-methylene-2-octyl-5-oxotetrahydrofuran-3-carboxylic acid]",mice died from drug-related toxicity,[1],Six of the ten mice in the C75 treatment group died
same,tolerability in PANC-1 xenograft tumor-bearing mice,[2],drug-induced weight loss and toxicity
"CCN(CC)c1cc(C)c(C(=O)N2CCC(c3ccc(C#N)cc3)CC2)cc1-c1nnc(C)[nH]1 [Compound 129, 4-(1-(4-(diethylamino)-2-methyl-5-(5-methyl-4H-1,2,4-triazol-3-yl)benzoyl)piperidin-4-yl)benzonitrile]",EC50,HCV1b replicon,2150 nM
"Cc1cc(C)c(-c2[nH]c(C3CCOCC3)nc2C)cc1C(=O)N1CC(F)(c2ccc(C#N)cc2)C1 [Compound 167, 4-(1-(2,4-Dimethyl-5-(4-methyl-2-(tetrahydro-2H-pyran-4-yl)-1H-imidazol-5-yl)benzoyl)-3-fluoroazetidin-3-yl)benzonitrile]",EC50,HCV1b replicon,25 nM
"Cc1cc(C)c(-c2[nH]nc(C)c2C)cc1C(=O)N1CC(c2ccc(C#N)cc2)C1 [Compound 242, 4-(1-(5-(3,4-Dimethyl-1H-pyrazol-5-yl)-2,4-dimethylbenzoyl)azetidin-3-yl)benzonitrile]",tolerability in PANC-1 xenograft tumor-bearing mice,[3],well tolerated as a single or combination agent
same,TGI vs. Vehicle,PANC-1 xenograft tumors; Compound 242 30 mg/kg po Qd for 18 days,9%
same,tolerability in OVCAR-8 xenograft tumor-bearing mice,[4],well tolerated as a single or combination agent
same,Body Weight Change,"mouse, in vivo, po, 100 mg/kg",−12.0%
same,TGI vs. Vehicle,OVCAR-8 xenograft tumors; Compound 242 30 mg/kg po Qd,46%
same,TGI vs. Vehicle,OVCAR-8 xenograft tumors; Compound 242 100 mg/kg po Qd,74%
same,TGI vs. Vehicle,[5]; Compound 242 30 mg/kg po Qd for 20 days,6%
same,tolerability in CALU-6 xenograft tumor-bearing mice,[6],well tolerated as a single or combination agent
same,TGI vs. Vehicle,CALU-6 xenograft tumors; Compound 242 60 mg/kg po Qd,14%
same,TGI vs. Vehicle,CALU-6 xenograft tumors; Compound 242 100 mg/kg po Qd,0%
same,"tumor growth inhibition, range over dose groups","CALU-6 xenograft tumors; Compound 242 single agent at 30, 60, or 100 mg/kg once daily for 21 days",0-19%
"Cc1ccc(C(=O)N2CCC(c3ccc(C#N)cc3)CC2)cc1-c1[nH]nc(Cl)c1C [Compound 253, 4-(1-(3-(3-Chloro-4-methyl-1H-pyrazol-5-yl)-4-methylbenzoyl)piperidin-4-yl)benzonitrile]",EC50,HCV1b replicon,220 nM
"Nc1ccn([C@@H]2O[C@H](CO)[C@@H](O)C2(F)F)c(=O)n1 [Gemcitabine, gemcitabine, reference compound]",TGI vs. Vehicle,"PANC-1 xenograft tumors; gemcitabine 10 mg/kg ip, single agent",31%
"CCc1c2c(nc3ccc(OC(=O)N4CCC(N5CCCCC5)CC4)cc13)-c1cc3c(c(=O)n1C2)COC(=O)[C@]3(O)CC [Irinotecan, irinotecan, reference compound]",Body Weight Change,[7],−10.2%
same,body weight loss,"single agent irinotecan group, 10 mg/kg Q4d",10.2%
same,TGI vs. Vehicle,[5]; [7],57%
"CC(=O)O[C@H]1C(=O)[C@@]2(C)[C@H]([C@H](OC(=O)c3ccccc3)[C@]3(O)C[C@H](OC(=O)[C@H](O)[C@@H](NC(=O)c4ccccc4)c4ccccc4)C(C)=C1C3(C)C)[C@]1(OC(C)=O)CO[C@@H]1C[C@@H]2O [Paclitaxel, paclitaxel, reference compound]",TGI vs. Vehicle,OVCAR-8 xenograft tumors; paclitaxel 10 mg/kg ip Q4d,83%
same,TGI vs. Vehicle,CALU-6 xenograft tumors; paclitaxel 10 mg/kg ip Q4d,63%
